According to US12702660B2, “Method for treating cancer with an oral dosage form of an estrogen receptor-alpha inhibitor” (Eisai R&D Management Co., Ltd., priority 2019, dated 2026):
Entries after “also recorded” stand apart in the source; their conditions may differ.

Assays:
Type in all cases: in vivo, human
[1] = tested on: locally advanced or metastatic ER+HER2−BC; test: Tumor response and progression-free survival, phase 1 dose escalation
Source text: Example 3 reports Clinical and Genomics Analysis of a single trial. The Study Population in Example 3 was as follows: • Women ≥18 years old with locally advanced or metastatic ER+HER2−BC. • Progression on at least one hormonal therapy and at least one additional therapy/regimen; no maximum number of prior lines of therapy. • ECOG performance status of 0 or 1. • Adequate bone marrow and organ function. • Excluded if had bone-only disease or inflammatory BC.
Methods were used to analyze whether H3B-6545 inactivates both wild-type and mutant ERα by targeting cysteine 530 and enforcing a unique antagonist conformation. Methods: Women with locally advanced or metastatic HR+BC are treated (tx) with H3B-6545 drug product administered once daily orally by capsule over a 28 day cycle after progression on at least one hormonal therapy and at least one additional therapy/regimen. Dose escalation uses a 3+3 design with the option to backfill previously cleared doses and allows for intrapatient dose escalation. This example explored the safety, pharmacokinetics and pharmacodynamics of H3B-6545 in women with HR+BC to identify a recommended subsequent dose for testing.
• H3B-6545 administered once daily orally over a 28 day cycle. • Dose escalation using a standard 3+3 study design using dose cohorts of 100, 200, 300, 450, and 600 mg QD. • Patients allowed to backfill previously cleared doses. • Intra-patient dose escalation allowed after completion of Cycle 3. Results (as of Apr. 20, 2019) Patient Population: • 46 patients were treated with H3B-6545 at doses of 100 to 600 mg QD. • 42 (91.3%) patients received a prior CDK4/6 inhibitor and 32 (69.6%) prior fulvestrant. • 30 (65.2%) patients received ≥3 prior anti-cancer therapy lines in the advanced/metastatic setting.

[2] = Plasma PK of H3B-6545 capsules in fasted patients, phase 1 dose escalation; details: 100 to 450 mg; as of 10 Dec. 2018
[3] = tested on: ctDNA (ESR1, PIK3CA and AKT1 mutations); test: ctDNA mutant allele frequency monitoring (BEAMing, ddPCR) in plasma
Source text: Fresh plasma samples were collected at baseline (predose), cycle 1 day 15 (CID15), C2D1, C3D1 and every 8 weeks thereafter with a final sample collection at disease progression. At baseline, BEAMing digital PCR was used to evaluate hotspot mutations in ESR1, PIK3CA and AKT1. Patient specific ctDNA mutations were subsequently monitored by ddPCR. Baseline tumor biopsies were subjected to a targeted Next Generation Sequencing (NGS) panel to identify hotspot mutations.
• H3B-6545 administered once daily orally (PO QD) over a 28-day cycle • Dose escalation using a standard 3+3 study design using dose cohorts of 100, 200, 300, 450, and 600 mg/day
Liquid biopsy assays: 10 ml of Strek plasma was collected at the site and then processed into plasma at Sysmex Inostics. cfDNA was isolated from 2 ml of plasma for BEAMing and 3 ml for Biorad ddPCR

[4] = Total (N = 46), 100 to 600 mg QD
[5] = as of Apr. 20, 2019, 46 patients, 100 to 600 mg QD

## CN(C)C(=O)/C=C/CNCCOc1ccc(/C(=C(/CC(F)(F)F)c2ccccc2)c2ccc3[nH]nc(F)c3c2)cn1 [H3B-6545, (E)-N,N-dimethyl-4-[2-[5-[(Z)-4,4,4-trifluoro-1-(3-fluoro-1H-indazol-5-yl)-2-phenylbut-1-enyl]pyridin-2-yl]oxyethylamino]but-2-enamide]
[1]; 100 mg QD (N = 6)
  Best Overall Response: Complete Response (CR): 0 (0.0) n (%)
  Best Overall Response: Not Evaluable (NE): 0 (0.0) n (%)
  Best Overall Response: Partial Response (PR): 1 (16.7) n (%)
  Best Overall Response: Progressive Disease (PD): 0 (0.0) n (%)
  Best Overall Response: Unknown (UNK): 0 (0.0) n (%)
  Objective Responses (CR + PR): 1 (16.7) n(%)
  Progressive-Free Survival, Median (95% CI): 9.3 (7.4, NE) months
  Progressive-Free Survival, Q1 (95% CI): 7.5 (7.4, 11.0) months
[1]; 200 mg QD (N = 12)
  Best Overall Response: Complete Response (CR): 0 (0.0) n (%)
  Best Overall Response: Not Evaluable (NE): 4 (33.3) n (%)
  Best Overall Response: Partial Response (PR): 1 (8.3) n (%)
  Best Overall Response: Progressive Disease (PD): 2 (16.7) n (%)
  Best Overall Response: Unknown (UNK): 1 (8.3) n (%)
  Objective Responses (CR + PR): 1 (8.3) n(%)
  Progressive-Free Survival, Median (95% CI): 5.5 (0.9, NE) months
  Progressive-Free Survival, Q1 (95% CI): 1.5 (0.9, 5.5) months
[1]; 300 mg QD (N = 11)
  Best Overall Response: Complete Response (CR): 0 (0.0) n (%)
  Best Overall Response: Not Evaluable (NE): 3 (27.3) n (%)
  Best Overall Response: Partial Response (PR): 0 (0.0) n (%)
  Best Overall Response: Progressive Disease (PD): 5 (45.5) n (%)
  Best Overall Response: Unknown (UNK): 0 (0.0) n (%)
  Objective Responses (CR + PR): 0 (0.0) n(%)
  Progressive-Free Survival, Median (95% CI): 1.8 (1.6, 5.4) months
  Progressive-Free Survival, Q1 (95% CI): 1.8 (1.6, 1.8) months
  Progressive-Free Survival, Q3 (95% CI): 5.4 (1.8, NE) months
[1]; 450 mg QD (N = 10)
  Best Overall Response: Complete Response (CR): 0 (0.0) n (%)
  Best Overall Response: Not Evaluable (NE): 3 (30.0) n (%)
  Best Overall Response: Partial Response (PR): 1 (10.0) n (%)
  Best Overall Response: Progressive Disease (PD): 3 (30.0) n (%)
  Best Overall Response: Unknown (UNK): 0 (0.0) n (%)
  Objective Responses (CR + PR): 1 (10.0) n(%)
  Progressive-Free Survival, Median (95% CI): 7.2 (1.8, 7.3) months
  Progressive-Free Survival, Q1 (95% CI): 1.9 (1.8, 7.2) months
  Progressive-Free Survival, Q3 (95% CI): 7.3 (2.1, 7.5) months
[1]; 600 mg QD (N = 7)
  Best Overall Response: Complete Response (CR): 0 (0.0) n (%)
  Best Overall Response: Not Evaluable (NE): 4 (57.1) n (%)
  Best Overall Response: Partial Response (PR): 0 (0.0) n (%)
  Best Overall Response: Progressive Disease (PD): 1 (14.3) n (%)
  Best Overall Response: Unknown (UNK): 0 (0.0) n (%)
  Objective Responses (CR + PR): 0 (0.0) n(%)
[1]; [4]
  Best Overall Response: Complete Response (CR): 0 (0.0) n (%)
  Best Overall Response: Not Evaluable (NE): 14 (30.4) n (%)
  Best Overall Response: Partial Response (PR): 3 (6.5) n (%)
  Best Overall Response: Progressive Disease (PD): 11 (23.9) n (%)
  Best Overall Response: Unknown (UNK): 1 (2.2) n (%)
  Objective Responses (CR + PR): 3 (6.5) n(%)
  Progressive-Free Survival, Median (95% CI): 7.2 (1.9, 7.4) months
  Progressive-Free Survival, Q1 (95% CI): 1.8 (1.6, 2.1) months
  Progressive-Free Survival, Q3 (95% CI): 7.5 (7.3, NE) months
[1]; as of 10 Dec. 2018, 32 patients, 100 to 450 mg/day
  Stable disease, patients: 15 patients
[1]; [5]
  At least 6 months of therapy completed, % of patients: 30.4%
  At least 6 months of therapy completed, patients: 14 patients
  Confirmed partial response, % of patients: 6.5%
  Confirmed partial response, patients: 3 patients
  Stable disease, % of patients: 37.0%
  Stable disease, patients: 17 patients
[1]; heavily pre-treated, post CDK4/6i setting, 46 patients
  mPFS: 7.2 months
[1]; patient case study, 450 mg QD, after 4 cycles
  response of case study patient: partial response
[1]; patient case study, 450 mg QD, baseline to C3D1
  decrease in the sum of the diameters of all target lesions: −27.8%
[1]; patient case study, 450 mg QD, baseline to C7D1
  decrease in the sum of the diameters of all target lesions: −35.6%
[2]
  plasma concentration versus dose: increased with dose
[3]; plasma
  changes in mutant allele frequencies versus response: show correlation in response to treatment; also recorded: show correlation to clinical response
[3]; serial ctDNA monitoring
  ctDNA levels by C2D1 in patients with confirmed partial response: undetectable
  patients with confirmed partial responses whose ctDNA levels were undetectable by C2D1: 3/3
  patients with progressive disease whose ctDNA levels increased from baseline: 3/4
